Assay results from PubChem BioAssay AID652047 (Broad Institute, 2013).
Activity calls are given as the source filed them.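 How the source made its calls: active means fitted curve reaches activity change of -35% signal drop at a concentration below twice the top valid tested dose; inactive means the rest, including activity in the opposite direction.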

Test: growth inhibition of P. falciparum 3D7, dose response, 3D7 strain, red blood cells, SYBR Green, cherry-picked (AID 652047);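 further: 0% = untreated neutral control wells and -100% = mefloquine positive control wells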
Details: P. falciparum 3D7 in RBCs, SYBR Green DNA fluorescence; at 50 µM (top of the series)

**Q.** For CCCn1c(=O)c(C(=O)NCc2ccc(OC)c(OC)c2)c(O)c2ccccc21, which activity change, negative = inhibition is on record?
**A.** The activity change, negative = inhibition was -23.6% (inactive).

**Q.** Which activity change, negative = inhibition does the source give for Clc1ccc(-c2n[nH]c3c2CCC3)cc1Cl here?
**A.** Its activity change, negative = inhibition is 19.2% (inactive).

**Q.** With CCCSC(=S)c1c(C)[nH]n(-c2ccccc2)c1=O as the compound, how does the activity change, negative = inhibition read?
**A.** The activity change, negative = inhibition was -28.2% (inactive).

**Q.** For CC1(C)CC(=O)C(N=Nc2ccc3ncsc3c2)=C(O)C1, which activity change, negative = inhibition is on record?
**A.** Its activity change, negative = inhibition is -15.1% (inactive).

**Q.** For O=C(c1ccccc1)N1C(=O)C(c2ccccc2)Oc2ccccc21 (stereo unspecified), which activity change, negative = inhibition is on record?
**A.** The activity change, negative = inhibition was -36.8% (inactive).

**Q.** With c1ccc(-c2ccc(OCCCn3cncn3)cc2)cc1 as the compound, how does the activity change, negative = inhibition read?
**A.** The activity change, negative = inhibition was 6.71% (inactive).

**Q.** Which activity change, negative = inhibition does the source give for c1ccc(Cn2cc(-c3cccnc3)cn2)cc1 here?
**A.** Its activity change, negative = inhibition is -24.2% (inactive).

**Q.** For O=C1Nc2c(Br)cccc2C1=O, which activity change, negative = inhibition is on record?
**A.** Its activity change, negative = inhibition is -4.37% (inactive).

**Q.** With Cc1cc(NS(=O)(=O)c2ccc(C3CCCCC3)cc2)no1 as the compound, how does the activity change, negative = inhibition read?
**A.** The activity change, negative = inhibition was 27.3% (inactive).

**Q.** For CCCC1CCC(c2ccc(/C(N)=N/O)cc2)CC1 (stereo unspecified), which activity change, negative = inhibition is on record?
**A.** Its activity change, negative = inhibition is -10.1% (inactive).

**Q.** With COc1ccc(N(C)S(=O)(=O)c2ccc(Cl)c(C(=O)NNC(=O)c3ccccc3O)c2)cc1 as the compound, how does the activity change, negative = inhibition read?
**A.** The activity change, negative = inhibition was -2.22% (inactive).

**Q.** For Cc1nc2ccc(C(=O)NCc3ccc4c(c3)OCO4)cc2s1, which activity change, negative = inhibition is on record?
**A.** Its activity change, negative = inhibition is 1.05% (inactive).

**Q.** Which activity change, negative = inhibition does the source give for Cc1cccc(C)c1N1C(=O)C2ON(c3ccccc3)C(c3ccncc3)C2C1=O (stereo unspecified) here?
**A.** The activity change, negative = inhibition was -3.22% (inactive).

**Q.** Which activity change, negative = inhibition does the source give for Cc1ccc(C(=O)C(SC(C)(C)C)n2cncn2)cc1 (stereo unspecified) here?
**A.** Its activity change, negative = inhibition is -13% (inactive).

**Q.** Which activity change, negative = inhibition does the source give for CC(C)CSc1n[nH]c(=S)s1 here?
**A.** Its activity change, negative = inhibition is -1.47% (inactive).

**Q.** For CCn1c(CNc2ccc(Cl)cc2)nnc1SCc1ccccc1, which activity change, negative = inhibition is on record?
**A.** The activity change, negative = inhibition was -1.95% (inactive).

**Q.** Which activity change, negative = inhibition does the source give for COC(OC)c1ccc(C#N)c(SCc2ccccc2)n1 here?
**A.** The activity change, negative = inhibition was -2.94% (inactive).

**Q.** For CCC(Oc1ccc(Br)cc1Cl)C(=O)Nc1nnc(C2CC2)s1 (stereo unspecified), which activity change, negative = inhibition is on record?
**A.** The activity change, negative = inhibition was -18.5% (inactive).

**Q.** For Nc1nc2sc3c(c2c(=O)s1)CCCC3, which activity change, negative = inhibition is on record?
**A.** The activity change, negative = inhibition was -14.6% (inactive).

**Q.** Which activity change, negative = inhibition does the source give for COc1ccc(N(C(=O)c2ccncc2)S(=O)(=O)c2ccccc2)cc1 here?
**A.** The activity change, negative = inhibition was -18.5% (inactive).

**Q.** With CC(C)NC(=O)NC(=O)COC(=O)c1ccc([N+](=O)[O-])cc1Cl as the compound, how does the activity change, negative = inhibition read?
**A.** Its activity change, negative = inhibition is 16.4% (inactive).

**Q.** For O=C(c1ccc(Cl)cc1)N1CCN(c2ccc(F)cc2)CC1, which activity change, negative = inhibition is on record?
**A.** Its activity change, negative = inhibition is -26.4% (inactive).

**Q.** With O=C(O)c1c(NC(=O)N2CCCC2)sc2c1CCCC2 as the compound, how does the activity change, negative = inhibition read?
**A.** Its activity change, negative = inhibition is -4.69% (inactive).

**Q.** With CCCn1c2ccccc2c2cc(C(=O)O)ccc21 as the compound, how does the activity change, negative = inhibition read?
**A.** Its activity change, negative = inhibition is 17.1% (inactive).

**Q.** Which activity change, negative = inhibition does the source give for COc1ccc(N(C(=O)c2ccncc2)S(=O)(=O)c2ccc(F)cc2)cc1 here?
**A.** The activity change, negative = inhibition was 38.9% (inactive).

**Q.** Which activity change, negative = inhibition does the source give for O=C(c1ccccc1)c1ccc(Cn2cc(-c3ccccc3)nn2)cc1 here?
**A.** Its activity change, negative = inhibition is -9.93% (inactive).

**Q.** With COc1cc2c(c(OC)c1OC)-c1ccc(O)c(=O)cc1[C@@H](NC(C)=O)CC2 as the compound, how does the activity change, negative = inhibition read?
**A.** Its activity change, negative = inhibition is -10.9% (inactive).

**Q.** With CNc1cc(CSC)nc(SCc2ccc(Cl)cc2Cl)n1 as the compound, how does the activity change, negative = inhibition read?
**A.** The activity change, negative = inhibition was 14.7% (inactive).

**Q.** With O=c1c(CO)cc(CO)cc(CO)c1O as the compound, how does the activity change, negative = inhibition read?
**A.** Its activity change, negative = inhibition is -103% (inactive).

**Q.** With CCOC(=O)c1ccc(N2C(=O)CC(N3CCC(O)(c4ccc(Cl)cc4)CC3)C2=O)cc1 (stereo unspecified) as the compound, how does the activity change, negative = inhibition read?
**A.** Its activity change, negative = inhibition is 7.67% (inactive).

**Q.** With O/N=C/c1ccccc1OCc1ccc(Cl)cc1 as the compound, how does the activity change, negative = inhibition read?
**A.** Its activity change, negative = inhibition is -27.3% (inactive).

**Q.** With Nc1nc(-c2ccc(Oc3ccccc3)cc2)cs1 as the compound, how does the activity change, negative = inhibition read?
**A.** Its activity change, negative = inhibition is -0.359% (inactive).

**Q.** For CCCOc1ccc2ccccc2c1/C=C1\SC(=O)NC1=O, which activity change, negative = inhibition is on record?
**A.** The activity change, negative = inhibition was -22.2% (inactive).

**Q.** With CCCCn1c(=O)c(C(=O)NCc2ccncc2)c(O)c2ccccc21 as the compound, how does the activity change, negative = inhibition read?
**A.** The activity change, negative = inhibition was 2.98% (inactive).

**Q.** With FC(F)(F)c1nc(SCc2ccc(Cl)cc2Cl)n[nH]1 as the compound, how does the activity change, negative = inhibition read?
**A.** Its activity change, negative = inhibition is 8.98% (inactive).

**Q.** With CCOc1ccc(N/N=C(/C#N)C(N)=O)cc1 as the compound, how does the activity change, negative = inhibition read?
**A.** The activity change, negative = inhibition was -29.8% (inactive).

**Q.** For O=C(O)CSc1nc(-c2ccc(Cl)cc2)nc2c1oc1ccccc12, which activity change, negative = inhibition is on record?
**A.** Its activity change, negative = inhibition is -31.1% (inactive).

**Q.** For CCc1ccc(S(=O)(=O)N(C(=O)c2ccncc2)c2ccc(OC(=O)c3ccncc3)cc2)cc1, which activity change, negative = inhibition is on record?
**A.** The activity change, negative = inhibition was -20% (inactive).

**Q.** For O=C1N(c2ccc(Cl)cc2)C(c2cccnc2)N2CCCN12 (stereo unspecified), which activity change, negative = inhibition is on record?
**A.** Its activity change, negative = inhibition is -3.96% (inactive).

**Q.** With O=C(N/N=C/c1cc(Cl)cc([N+](=O)[O-])c1O)c1ccccc1NS(=O)(=O)c1cccs1 as the compound, how does the activity change, negative = inhibition read?
**A.** Its activity change, negative = inhibition is 3.85% (inactive).

**Q.** Which activity change, negative = inhibition does the source give for CC12CCC(O)CC1=CCC1C2CCC2(C)C3=NN=CC3CC12 (stereo unspecified) here?
**A.** The activity change, negative = inhibition was -27.5% (inactive).
